Experimental data taken from ChEMBL document CHEMBL3397010, “Design, synthesis, and biological evaluation of air-stable nafuredin-γ analogs as complex I inhibitors” (Bioorg Med Chem, 2015).

Assay: Inhibition of electron transport protein complex 1 in Ascaris suum mitochondria assessed as reduction in rhodoquinol-fumarate reductase activity by measuring NADH oxidation using NADH, sodium fumarate and decyl-rhodoquinone

SMILES	IC50 [nM]
CC(C)=CCC/C(C)=C/CC/C(C)=C/CC[C@@H](O)[C@]1(C)CCC(=O)O1	820
CC[C@H](C)/C=C/C=C(\C)C[C@@H](C)/C=C/C=C/[C@@H](O)[C@]1(C)C=C(O)C(=O)O1	6
CC[C@H](C)CC/C=C(\C)C[C@@H](C)CC/C=C/[C@@H](O)[C@]1(C)CCC(=O)O1	550
CC(C)=CCC/C(C)=C/CC/C(C)=C/CC[C@@H](O)[C@]1(C)CCCO1	500
C/C(=C\CCC(C)C)CCCC/C=C/[C@@H](O)[C@]1(C)CCC(=O)O1	340
C/C(=C\CCC(C)C)C[C@@H](C)CC/C=C/[C@@H](O)[C@]1(C)CCC(=O)O1	300
CCc1ccc2ccc(Cc3cccc(/C=C/[C@@H](O)[C@]4(C)CCC(=O)O4)c3)cc2c1	550
